{"source": "patent US7993907B2", "about": "“Biochips and method of screening using drug induced gene and protein expression profiling” (Mowycal Lending, LLC, priority 2001, dated 2011)", "origin": "cited, not measured here", "key": {"[1]": {"conditions": "Indication Alzheimer's Disease"}, "[2]": {"conditions": "examples of hazardous chemicals"}, "[3]": {"conditions": "Indication Breast Cancer"}, "[4]": {"conditions": "Indication Osteoporosis"}, "[5]": {"conditions": "Indication Acute Respiratory Disease"}, "[6]": {"conditions": "Indication Congestive Heart Failure"}, "[7]": {"test_system": "human peripheral blood cells", "conditions": "cells stimulated by pro-inflammatory agents or molecules"}}, "note": "Where two headings read alike, the source gives them in different places. Where no end group is shown, it is not given here. The star is where a group is joined. For = O=C*"}
{"molecule": "C[C@]12CC[C@H](O)CC1=CC[C@@H]1[C@@H]2CC[C@]2(C)C(=O)CC[C@@H]12", "note": "[DHEA]", "values": [{"measurement": "Termination (reason drug was discontinued or terminated in FDA trials)", "setting": "[1]", "result": "Results were equal"}]}
{"molecule": "CC[n+]1c(-c2ccccc2)c2cc(N)ccc2c2ccc(N)cc21", "note": "[Ethidium Bromide (EtBr), Ethidium Bromide]", "values": [{"measurement": "Hazard", "setting": "[2]", "result": "Mutagen"}]}
{"molecule": "CC/C(=C(\\c1ccc(I)cc1)c1ccc(OCCN2CCCC2)cc1)c1ccccc1", "note": "[Idoxifene]", "values": [{"measurement": "Termination (reason drug was discontinued or terminated in FDA trials)", "setting": "[3]", "result": "Lack of efficacy"}, {"measurement": "Termination (reason drug was discontinued or terminated in FDA trials)", "setting": "[4]", "result": "Lack of efficacy"}]}
{"molecule": "C[C@@H](O)CCCCn1c(=O)c2c(ncn2C)n(C)c1=O", "note": "[Lisofylline]", "values": [{"measurement": "Termination (reason drug was discontinued or terminated in FDA trials)", "setting": "[5]", "result": "Safety Board"}]}
{"molecule": "ENBREL", "values": [{"measurement": "Termination (reason drug was discontinued or terminated in FDA trials)", "setting": "[6]", "result": "Lack of efficacy"}]}
{"molecule": "f-Met-Leu-Phe-Phe (For-MLFF) [HK-X]", "values": [{"measurement": "Effect on pro-inflammatory responses of human peripheral blood cells", "setting": "[7]", "result": "inactivate certain pro-inflammatory responses"}, {"measurement": "Mechanism of action on G protein γ kinase", "setting": "G protein γ kinase", "result": "inhibition of G protein γ kinase"}]}
